Data set [1] has as its system Lewis lung carcinoma cells (3LL). Put plainly: Irradiation of mice with orthotopic 3LL lung tumors. The format is in vivo, mouse. The source says: A separate group of mice received intratracheal administration of 1×10^6 Lewis lung carcinoma cells (3LL) seven days prior to administration of JP4-039, followed immediately by excision of lung tissue to calculate JP4-039 uptake by cancer cells.
This dose of irradiation was chosen to reduce tumor growth but was below the level required for lethal esophagitis. […] Control tumor-bearing mice received no irradiation.

Data set [2] concerns GFP+ cells in the esophagus. The experiment in a line: GFP+ marrow-derived cells in the irradiated esophagus (cell sorting). The format is in vivo, mouse. An excerpt: FIGS. 18A-F. Detection of GFP+ marrow-derived cells in the irradiated mouse esophagus after intravenous transplant. Mice were irradiated to 29 Gy to the esophagus on day 0, and then injected with 1×10^7 GFP+ marrow cells intravenously on day 5 according to published methods (Epperly M W, et al. Int J Cancer (Radiat Oncol Invest) 96: 221-233, 2001; Epperly M W, et al. In Vivo 19: 997-1004, 2005; and Epperly M W, et al. Protection of esophageal stem cells from ionizing irradiation by MnSOD-plasmid liposome gene therapy. In Vivo 19: 965-974, 2005). Five esophagus samples were removed from each animal in the various subgroups on days 1 (FIG. 18A), 3 (FIG. 18B), 7 (FIG. 18C), 14 (FIG. 18D), 28 (FIG. 18E) and 60 (FIG. 18F) after marrow injection. Samples of excised esophagi were prepared as single cell suspensions and then analyzed by cell […] for GFP+ cells/106 esophagus cells. Each symbol represents one esophagus.
Bone marrow transplantation, esophageal excision and cell sorting. Five days after irradiation, the time shown to optimize marrow cell homing to the irradiated esophagus, mice received intravenous injection of 1.0×10^7 C57BL/6HNsd GFP+ male bone marrow cells prepared as single-cell suspension from donor male mice according to published methods (Niu Y, et al. Irradiated esophageal cells are protected from radiation-induced recombination by MnSOD gene therapy. Rad Res 173: 453-461, 2010 and Niu Y, et al. Intraesophageal MnSOD-plasmid liposome administration enhances engraftment and self-renewal capacity of bone marrow derived progenitors of esophageal squamous epithelium. Gene Therapy 15: 347-356, 2008). At serial time points after marrow transplantation, esophagus specimens were removed, and single cell suspensions prepared according to published methods (Id.). The esophagus cell suspensions were sorted for GFP+ cells. The number of GFP+ cells per 10^6 was calculated as described previously (Id.). (GFP+) cells were placed on slides, and stained for detection of donor cell markers (Id.).
Statistics. In vitro data analysis and estimation of survival of mice were performed using published statistical methods (Epperly M W, et al. Radiat Res 155: 2-14, 2001). The Kruskal-Wallis test and post-hoc Mann-Whitney test were used to evaluate donor marrow cells in the esophagus as described (Niu Y, et al. Rad Res 173: 453-461, 2010). A SAS statistical program was used to perform the statistical analysis (SAS Institute, Cary, N.C., USA).

Data set [3] can be described thus: JP4-039 content of sorted esophageal SP and NSP cells (EPR). The data set is classed as in vivo, mouse. The settings on record: 20 esophagi excised 10 minutes after intraesophageal delivery. On the procedure: Ten minutes after administration of JP4-039, esophagi were removed, minced, and incubated in a solution of 0.2% Collagenase type II, 0.3% Dispase and 0.025% Trypsin for 45 minutes at 37 degrees Celsius. Cell aggregates were then passed through sequentially smaller needles (to 23-gauge) and filtered with a […] cell strainer into DMEM supplemented with 40% fetal bovine serum. Suspensions were pelleted via centrifugation and resuspended at 10^6 cells/ml in pre-warmed DMEM (2% FBS, 10 mM HEPES). Cells were incubated in 6 μg/ml Hoechst 33342 for 90 minutes to identify SP cells. Verapamil, which inhibits the efflux of Hoechst, was used as a concentration of 50 μM for the purpose of cell gating. Cells were pelleted and resuspended in cold Hank's Balanced Salt Solution (HBSS) (2% FBS, 10 mM HEPES) and incubated with anti-CD45-phycoerythrin (PE)-fluorescein isothiocyanate (FITC) and/or anti-Ter119-PE-Cy7 antibodies at 1:200 dilutions, to discriminate hematopoietic cells. Antibody-treated cells were incubated on ice for 20 minutes, washed in cold HBSS, filtered, pelleted, and resuspended in cold HBSS. […] SP and NSP cells were quantified, sorted into separate collection tubes containing cold HBSS (2% FBS, 10 mM HEPES) and pelleted. […] JP4-039 content in sorted SP and NSP cells was quantified by electron paramagnetic resonance (EPR) analysis using a JEOL-RE1XEPR spectrometer. […]

Data set [4] concerns KM101 human marrow stromal cells. The experiment in a line: Irradiation survival of KM101 marrow stromal cells (colony assay). The settings on record: for n (shoulder): 0 to 6 Gy. The data set is classed as cell-based. On the procedure: FIG. 7 is a graph showing that JP4-039 is an effective mitigator of irradiation damage to KM101 human marrow stromal cells. KM101 cells were incubated in media alone or in JP4-039 ([…]) for one hour before irradiation or 24 hours after irradiation. The cells were irradiated to doses ranging from 0 to 6 Gy and plated in 4 well plates. Seven days later the cells were stained with crystal violet and colonies of greater than 50 cells counted. Cells incubated in JP4-039 either before or after irradiation were more radioresistant as shown by an increased shoulder of n=2.3±0.2 or 2.2±0.2, respectively compared to n of 1.1±0.1 for the KM101 cells (p=0.0309 or 0.0386, respectively).

As for `CC(C)C[C@@H](/C=C/CC(=O)NC1CC(C)(C)N([O])C(C)(C)C1)NC(=O)OC(C)(C)C` [JP4-039, TEMPO-4-yl-(S,E)-5-(tert-butoxycarbonylamino)-7-methyloct-3-enamide], in data set [1] (4 μg in 110 μl F15, 10 minutes before 0 or 15 Gy upper-body irradiation), the “protection of orthotopic 3LL cells from irradiation” value is “did not protect 3LL cells from irradiation”. Also, the “survival of 3LL tumor-bearing mice compared to F15 alone” value in data set [1] (prior to 20 Gy thoracic irradiation, p=0.3693) is recorded as “did not survive significantly differently”. The “number of GFP+ cells per 10^6 cells in the esophagus, median (inter-quartile range)” value in data set [2] (29 Gy + JP4-039 (after irradiation), day 1) is on record as 0.5 (0-1.6) per 10^6 cells; in data set [2] (29 Gy + JP4-039 (after irradiation), day 3), 1.5 (0.5-1.7) per 10^6 cells; in data set [2] (29 Gy + JP4-039 (after irradiation), day 7), 0 (0-0.3) per 10^6 cells; in data set [2] (29 Gy + JP4-039 (after irradiation), day 28) it was 0.85 (0-4.15) per 10^6 cells; in data set [2] (JP4-039 + 29 Gy (before irradiation), day 1) it was 0.9 (0.3-2.6) per 10^6 cells; in data set [2] (JP4-039 + 29 Gy (before irradiation), day 3) it was 0.3 (0-3.1) per 10^6 cells. In addition, the “number of GFP+ cells per 10^6 cells in the esophagus, median (inter-quartile range)” value is recorded as 0.28 (0.13-0.65) per 10^6 cells in data set [2] (JP4-039 + 29 Gy (before irradiation), day 7); 0 (0-0) per 10^6 cells in data set [2] (JP4-039 + 29 Gy (before irradiation), day 28); 0 (0-0) per 10^6 cells in data set [2] (JP4-039 + 29 Gy (before irradiation), day 60). In addition, the “JP4-039 content of sorted SP cell pellet” value in data set [3] (101,00 SP cells) stood at 275.1 fmol. In data set [3] (3,387,00 NSP cells), the “JP4-039 content of sorted NSP cells” value was determined as 221.3 fmol. For the same molecule, the “n (shoulder)” value in data set [4] (24 hours after irradiation, KM101 alone 1.1±0.1, p=0.0386) worked out at 2.2±0.2; in data set [4] (for one hour before irradiation, KM101 alone 1.1±0.1, p=0.0309), 2.3±0.2. The Do entry in data set [4] (before or after irradiation vs media alone) is “no significant change”.

These data come from patent US20190210969A1, “INTRAESOPHAGEAL ADMINISTRATION OF TARGETED NITROXIDE AGENTS FOR PROTECTION AGAINST IONIZING IRRADIATION-INDUCED ESOPHAGITIS” (University of Pittsburgh - Of the Commonwealth System of …, priority 2010, published 2019).
